Experimental data: patent publication US20240254085A1, “CHELATORS FOR RADIOMETALS AND METHODS OF MAKING AND USING SAME” (The University of British Columbia, priority 2021, published 2024)

Assays:
[1] = literature value (ref 11); cited from earlier work
[2] = Protonation constants by combined potentiometric-spectrophotometric and acidic in-batch UV-vis titrations; format: physicochemical; conditions: 25° C.
From the text: Prior to investigation of the thermodynamic stability of different metal complexes, the protonation constants of the chelating ligand must be determined independently, due to the competition between a given metal ion with a proton for the same coordinating group in the metal complex reaction. Combined potentiometric and UV-vis spectrophotometric titrations were used to evaluate the protonation constants of H4noneunpaX between pH˜2-11.5, while acidic in-batch UV-vis spectrophotometric titrations were used to determine the protonation constants for the most acidic protons, which were below the threshold of the pH electrode (pH<2). All eight protonation constants for H4noneunpaX were determined through refinement of the experimental data using HyperSpec^24 and Hyperquad^25, Table 3.
(§1) All potentiometric titrations were carried out with a Metrohm Titrando 809 and a Metrohm Dosino 800 with a Ross combined electrode. Direct titrations were recorded using a Varian Cary 60 UV-vis spectrophotometer (200-350 nm spectral range) equipped with an optic dip probe (0.2 cm path length), while acidic in-batch experiments were measured with a standardised glass cuvette (1 cm path length). A temperature-controlled (298 K) 20 mL glass cell with an inlet-outlet adapter for nitrogen gas purging (purified via a 10% NaOH solution to exclude CO2 prior to and during each titration) was used as a titration cell. The electrode was calibrated daily in hydrogen ion concentration by direct titration of HCl with freshly prepared NaOH solution, and the results were analysed with the Gran procedure^55 to determine the standard potential (E°) and the ionic product of water (pKw), at 298 K, with 0.16 M NaCl as a supporting electrolyte. Solutions under study were titrated with carbonate-free NaOH solution (˜0.16 M) which was standardized against freshly recrystallized potassium hydrogen phthalate.
The protonation equilibria of H4noneunpaX were evaluated through combined potentiometric-spectrophotometric titrations of solutions containing the ligand ([L]=9.57×10^−4 M) in 0.16 M NaCl (T=298 K, I=0.2 cm). Electromotive force (EMF) values and UV-vis spectra were recorded after each addition of NaOH, and the apparatuses synchronized to have consistent time-intervals (30 s) between each addition/equilibration and data acquisition. Further acidic in-batch UV-vis spectrophotometry studies were performed to obtain the protonation constants for the most acidic ionisable protons of H4noneunpaX, which were below the threshold of the pH electrode (pH<2). Separate solutions of the ligand were prepared at constant molarity ([L]=1×10^−4 M) with differing amounts of HCl (0.1 M and 3.0 M), while maintaining a constant ionic strength (0.16 M NaCl) wherever possible. In each case, the solution stoichiometry was used to calculate the equilibrium concentration of H^+ ions, following the Hammett acidity function (H0) for determination of acidity in high concentration acid solutions. All eight protonation constants for H4noneunpaX were determined through refinement of the experimental data using HypSpec2014^24 and Hyperquad2013^25 software.
(§2) All the potentiometric measurements were processed using the Hyperquad2013^25 software, while spectroscopic measurements were analysed using HypSpec2014.^24 Proton dissociation constants corresponding to hydrolysis of the Sc^3+, In^3+, Lu^3+, Dy^3+ Gd^3+, Sm^3+, and La^3+ aqueous ions used in the calculations were taken from Baes and Mesmer. Speciation diagrams were generated with the calculated protonation constants and stability constants using Hyss software.^56
(§3) Each species generated in the investigated systems can be defined in accordance with the general equilibrium equation pM+qH+rL=MpHqLr (charges omitted). Wherein, a complex containing a metal ion, M, proton, H and ligand, L, has the general formula MpHqLr. […]

[3] = Complex formation equilibria (stability constants) with Sc^3+; format: physicochemical
Description: (§4) To evaluate the affinity of H4noneunpaX towards metal ions of medicinal importance—e.g. Sc^3+, In^3+, Lu^3+, Dy^3+, Gd^3+, Sm^3+, La^3+— the complex formation equilibria were studied using both combined potentiometric-spectrophotometric titrations, and in all cases, acidic in-batch UV-vis spectrophotometric titrations below pH 2. […]
as §1, with “Solutions under study were titrated with carbonate-free NaOH solution (˜0.16 M) which was standardized against freshly recrystallized potassium hydrogen phthalate.” left out
(§5) The complex formation equilibria of H4noneunpaX with Sc^3+, In^3+, Lu^3+, Dy^3+, Gd^3+, Sm^3+, and La^3+ were evaluated using both combined potentiometric-spectrophotometric titrations, and acidic in-batch UV-vis spectrophotometric titrations below pH 2. […] Measurements were recorded at T=298 K, I=1.0 cm, the Hammett acidity function (H0) was used determination of the pH in highly acidic solutions rather than electrode potentials. Metal solutions were prepared from atomic absorption spectroscopy (AAS) standards, which were previously evaluated using Gran's method of titrating equimolar solutions of a given metal ion and Na2H2EDTA against NaOH to determine the acid concentration. […]

[4] = Complex formation equilibria (stability constants) with In^3+; format: physicochemical
Description: as §4, §1
The complex formation equilibria of H4noneunpaX with Sc^3+, In^3+, Lu^3+, Dy^3+, Gd^3+, Sm^3+, and La^3+ were evaluated using both combined potentiometric-spectrophotometric titrations, and acidic in-batch UV-vis spectrophotometric titrations below pH 2. For combined potentiometric-spectrophotometric titrations (spectral range: 200-350 nm), solutions containing a 1:1 molar ratio of metal-to-ligand ([M^3+]≈[H4noneunpaX]=8.40×10^−4 M) were titrated against NaOH solution at T=298 K, I=0.2 cm. Acidic in-batch UV-vis spectrophotometric measurements (spectral range: 200-350 nm) were carried out using sets of solutions containing a 1:1 molar ratio of metal-to-ligand ([M^3+]≈[H4noneunpaX]≈1×10^−4 M) with differing amounts of HCl (0.1 M and 3.0 M), to give samples ranging from pH 0-2. Measurements were recorded at T=298 K, I=1.0 cm, the Hammett acidity function (H0) was used determination of the pH in highly acidic solutions rather than electrode potentials. Metal solutions were prepared from atomic absorption spectroscopy (AAS) standards, which were previously evaluated using Gran's method of titrating equimolar solutions of a given metal ion and Na2H2EDTA against NaOH to determine the acid concentration.
as §2, §3

[5] = Complex formation equilibria (stability constants) with Lu^3+; format: physicochemical
Description: as §4
as §1, with “Solutions under study were titrated with carbonate-free NaOH solution (˜0.16 M) which was standardized against freshly recrystallized potassium hydrogen phthalate.” left out
as §5

[6] = Complex formation equilibria (stability constants) with Dy^3+; format: physicochemical
Description: as §4
as §1, with “Solutions under study were titrated with carbonate-free NaOH solution (˜0.16 M) which was standardized against freshly recrystallized potassium hydrogen phthalate.” left out
as §5

[7] = Complex formation equilibria (stability constants) with Gd^3+; format: physicochemical
Description: as §4
as §1, with “Solutions under study were titrated with carbonate-free NaOH solution (˜0.16 M) which was standardized against freshly recrystallized potassium hydrogen phthalate.” left out
as §5

[8] = Complex formation equilibria (stability constants) with Sm^3+; format: physicochemical
Description: as §4
as §1, with “Solutions under study were titrated with carbonate-free NaOH solution (˜0.16 M) which was standardized against freshly recrystallized potassium hydrogen phthalate.” left out
as §5

[9] = Complex formation equilibria (stability constants) with La^3+; format: physicochemical
Description: as §4
as §1, with “Solutions under study were titrated with carbonate-free NaOH solution (˜0.16 M) which was standardized against freshly recrystallized potassium hydrogen phthalate.” left out
as §5

[10] = Human serum stability challenge; format: in vitro ADME; conditions: complexes with [^111In]In^3+, [^155Tb]Tb^3+, [^177Lu]Lu^3+, [^225Ac]Ac^3+; 37° C., 5-7 days
Description: All experiments were performed at 37° C. and monitored via radio-iTLC (n=3).
Human serum stability studies were carried out by addition of each radiolabelled complex or bioconjugate (100 μL) to vials containing human serum albumin (100 μL) and incubating the resulting solutions at 37° C. over 5-7 days. The radiochemical purity (RCP) was determined by iTLC using SA-paper plates and EDTA (50 mM, pH 5.5 or 7.0) as eluent, whereby transchelated radioactivity migrates with the solvent front (Rf=1.0) while intact metal complexes remain at the baseline (Rf=0). All studies were performed in triplicate, and the average % RCP used for assessment of each compound.

[11] = cited from earlier work
[12] = literature value (ref 40); cited from earlier work
[13] = −log[Mfree] when [L] = 10 μM, [M] = 1 μM at pH 7.4

Compound: O=C(O)CN1CCN(CC(=O)O)CCN(CC(=O)O)CCN(CC(=O)O)CC1 [DOTA]
- pLu [1]: 17.1

Compound: O=C(O)CN(CCN(CC(=O)O)CC(=O)O)CCN(CC(=O)O)CC(=O)O [DTPA]
- pLu [1]: 19.1

Compound: O=C(O)CN(CCOCCN(Cc1cccc(C(=O)O)n1)Cc1cccc(C(=O)O)n1)CC(=O)O [H4noneunpaX]
- Σlog KHqL ([2]; I = […] NaCl): 27.35 (6)
- log K (log K3) ([2]; H2L + H^+ ↔ H3L, I = […] NaCl): 3.79
- log β ([2]; H2L + H^+ ↔ H3L, I = […] NaCl): 19.71 (1)
- log K (log K4) ([2]; H3L + H^+ ↔ H4L, I = […] NaCl): 2.83
- log β ([2]; H3L + H^+ ↔ H4L, I = […] NaCl): 22.54 (2)
- log K (log K5) ([2]; H4L + H^+ ↔ H5L, I = […] NaCl): 2.38
- log β ([2]; H4L + H^+ ↔ H5L, I = […] NaCl): 24.92 (3)
- log K (log K6) ([2]; H5L + H^+ ↔ H6L, I = […] NaCl): 2.14
- log β ([2]; H5L + H^+ ↔ H6L, I = […] NaCl): 27.06 (4)
- log K ([2]; H6L + H^+ ↔ H7L, I = […] NaCl): 1.01
- log β ([2]; H6L + H^+ ↔ H7L, I = […] NaCl): 28.07 (4)
- log β ([2]; H7L + H^+ ↔ H8L): 27.35 (6)
- log K (log K2) ([2]; HL + H^+ ↔ H2L, I = […] NaCl): 7.08
- log β ([2]; HL + H^+ ↔ H2L, I = […] NaCl): 15.92 (1)
- log K (log K1) ([2]; L + H^+ ↔ HL, I = […] NaCl): 8.84
- log β ([2]; L + H^+ ↔ HL, I = […] NaCl): 8.84 (1)
- log KMHL ([3]; 25° C., I = […] NaCl): 3.07(1)
- log KML ([3]; 25° C., I = […] NaCl): 23.57(2)
- pM [3, 13]: 22.9
- log KM(OH)2L ([4]; 25° C., I = […] NaCl): 9.06(4)
- log KM(OH)L ([4]; 25° C., I = […] NaCl): 8.58(4)
- log KMHL ([4]; 25° C., I = […] NaCl): 6.17(3)
- log KML ([4]; 25° C., I = […] NaCl): 27.64(2)
- pM [4, 13]: 26.5
- log KMHL ([5]; 25° C., I = […] NaCl): 2.28(3)
- log KML ([5]; 25° C., I = […] NaCl): 21.93(3)
- pM [5, 13]: 21.3
- log KMHL ([6]; 25° C., I = […] NaCl): 2.29(2)
- log KML ([6]; 25° C., I = […] NaCl): 21.99(5)
- pM [6, 13]: 21.3
- log KMHL ([7]; 25° C., I = […] NaCl): 2.80(1)
- log KML ([7]; 25° C., I = […] NaCl): 20.87(4)
- pM [7, 13]: 20.2
- log KMHL ([8]; 25° C., I = […] NaCl): 2.77(1)
- log KML ([8]; 25° C., I = […] NaCl): 21.04(2)
- pM [8, 13]: 20.4
- log KMHL ([9]; 25° C., I = […] NaCl): 3.22(2)
- log KML ([9]; 25° C., I = […] NaCl): 18.45(4)
- pM [9, 13]: 17.8
- release of bound radiometal in human serum [10]: no release of bound radiometal

Compound: O=C(O)CN(CCOCCN(CC(=O)O)Cc1cccc(C(=O)O)n1)Cc1cccc(C(=O)O)n1 [H4noneunpa]
- log K2 ([11]; literature value (ref 13), terminal amine): 7.63

Compound: O=C(O)CN(CCO)CC(=O)O [HEIDA, N-(2-hydroxyethyl)iminodiacetic acid]
- log K1 ([11]; literature value (ref 26), iminodiacetate amine): 8.68

Compound: [^177Lu][Lu(DOTATATE)]
- accumulation in the adrenal glands [12]: 8.95 % ID/g
- accumulation in the lungs [12]: 17.4 % ID/g
- accumulation in the pancreas [12]: 10.9 % ID/g
- uptake in the kidneys [12]: 6.31 % ID/g
